The source of these data is patent US4539322A, “Dihydropyridine derivatives and their use in treating heart conditions and hypertension” (Pfizer Inc., priority 1982, dated 1985).

Where a name gives a salt, the structure may show the parent alone.

In the test the test system is rat aorta. The experiment in a line: Inhibition of calcium-induced contraction of isolated rat aorta strips (reduction of response to added calcium chloride in K+-containing saline). In kind it is cell-based. The settings on record: 0.75 h; spirally cut rat aorta strips, 45 millimolar potassium, calcium 2 millimolar, test repeated with compound after 45 minutes; read-out: molar concentration of the compounds required to reduce the response by 50% (IC50). How it is done: The ability of the compounds to inhibit the movement of calcium into the cell is shown by their effectiveness in reducing the response of isolated heart tissue to an increase in calcium ion concentration in vitro. The test is performed by mounting spirally cut strips of rat aorta with one end fixed and the other attached to a force transducer. The tissue is immersed in a bath of physiological saline solution containing potassium ion s at a concentration of 45 millimolar and no calcium. Calcium chloride is added to the bath with a pipette to give a final calcium ion concentration of 2 millimolar. The change in tension caused by the resulting contraction of the tissue is noted. The bath is drained and replaced with fresh saline solution and, after 45 minutes, the test is repeated with the particular compound under test present in the saline solution. The concentration of compound required to reduce the response by 50% is recorded.
In the case of `CCOC(=O)C1=C(COCCN2CCN(C(=NC)NC#N)CC2)NC(C)=C(C(=O)OC)C1c1ccccc1Cl` (stereo not drawn) [Example 1, 4-(2-chlorophenyl)-2-[2-[4-(N-cyano-N'-methyl-amidino)piperazin-1-yl]ethoxymethyl]-3-ethoxycarbonyl-5-methoxy-carbonyl-6-methyl-1,4-dihydropyridine, oxalate salt], the IC50 was determined as 10 nM.

In the case of `CCOC(=O)C1=C(COCCN2CCN(C(=NC#N)N3CCCC3)CC2)NC(C)=C(C(=O)OC)C1c1ccccc1Cl` (stereo not drawn) [Example 2], the IC50 worked out at 14 nM.

In the case of `CCOC(=O)C1=C(COCCN2CCN(C(=NC#N)NC(C)C)CC2)NC(C)=C(C(=O)OC)C1c1ccccc1Cl` (stereo not drawn) [Example 3], the IC50 worked out at 10 nM.

Regarding `CCOC(=O)C1=C(COCCN2CCN(C(=NC#N)N(C)C)CC2)NC(C)=C(C(=O)OC)C1c1ccccc1Cl` (stereo not drawn) [Example 4], the IC50 is 7 nM.

`CCOC(=O)C1=C(COCCN2CCN(C(N)=NC#N)CC2)NC(C)=C(C(=O)OC)C1c1ccccc1Cl` (stereo not drawn) [Example 5]: the IC50 was determined as 100 nM.

With `CCOC(=O)C1=C(COCCN2CCN(C(=NC#N)NCCN(C)C)CC2)NC(C)=C(C(=O)OC)C1c1ccccc1Cl` (stereo not drawn) [Example 6], the IC50 was 100 nM.

Take `CCOC(=O)C1=C(COCCN2CCN(C(=NS(C)(=O)=O)NC)CC2)NC(C)=C(C(=O)OC)C1c1ccccc1Cl` (stereo not drawn) [Example 7]: the IC50 was 100 nM.

With `CCOC(=O)C1=C(COCCN2CCN(C(=NS(=O)(=O)c3ccccc3)NC)CC2)NC(C)=C(C(=O)OC)C1c1ccccc1Cl` (stereo not drawn) [Example 8], the IC50 is 18.6 nM.

Consider `CCOC(=O)C1=C(COCCN2CCN(C(=NC#N)NC)CC2)NC(C)=C(C(=O)OC)C1c1cccc(Cl)c1Cl` (stereo not drawn) [Example 9], for which the IC50 was 15.1 nM.

For the molecule `CCOC(=O)C1=C(COCCN2CCN(C(=S)NC)CC2)NC(C)=C(C(=O)OC)C1c1ccccc1Cl` (stereo not drawn) [Example 10, 4-(2-chlorophenyl)-3-ethoxycarbonyl-5-methoxy-carbonyl-6-methyl-2-[2-(4-(N-methylthiocarbamoyl)-piperazin-1-yl)ethoxymethyl]-1,4-dihydropyridine, hydrochloride salt], the IC50 was determined as 6.3 nM.

Regarding `CCOC(=O)NC(=S)N1CCN(CCOCC2=C(C(=O)OCC)C(c3ccccc3Cl)C(C(=O)OC)=C(C)N2)CC1` (stereo not drawn) [Example 11], the IC50 came out at 13.8 nM.

`CCOC(=O)C1=C(COCCN2CCN(C(=O)NC(C)(C)C)CC2)NC(C)=C(C(=O)OC)C1c1ccccc1Cl` (stereo not drawn) [Example 12]: the IC50 amounted to 2 nM.

For the molecule `CCOC(=O)C1=C(COCCN2CCN(C(=O)NC)CC2)NC(C)=C(C(=O)OC)C1c1ccccc1Cl` (stereo not drawn) [Example 13], the IC50 stood at 6 nM.

Turning to `CCOC(=O)C1=C(COCCN2CCN(C(N)=O)CC2)NC(C)=C(C(=O)OC)C1c1ccccc1Cl` (stereo not drawn) [Example 14], the IC50 was 3.72 nM.

As to `CCOC(=O)C1=C(COCCN2CCN(C(=O)Nc3ccccc3)CC2)NC(C)=C(C(=O)OC)C1c1ccccc1Cl` (stereo not drawn) [Example 15], the IC50 is 5.01 nM.

Turning to `CCOC(=O)C1=C(COCCN2CCN(C(=O)NS(=O)(=O)c3ccc(C)cc3)CC2)NC(C)=C(C(=O)OC)C1c1ccccc1Cl` (stereo not drawn) [Example 16], the IC50 was 251 nM.

For `CCOC(=O)CNC(=O)N1CCN(CCOCC2=C(C(=O)OCC)C(c3ccccc3Cl)C(C(=O)OC)=C(C)N2)CC1` (stereo not drawn) [Example 17], the IC50 is 97 nM.

Consider `CCOC(=O)C1=C(COCCN2CCN(C(=O)NC3CC3)CC2)NC(C)=C(C(=O)OC)C1c1ccccc1Cl` (stereo not drawn) [Example 18], for which the IC50 was determined as 6.92 nM.

As to `CCCCNC(=O)N1CCN(CCOCC2=C(C(=O)OCC)C(c3ccccc3Cl)C(C(=O)OC)=C(C)N2)CC1` (stereo not drawn) [Example 19], the IC50 amounted to 15.8 nM.

In the case of `CCOC(=O)C1=C(COCCN2CCN(C(=O)Nc3ccc(C(=O)OCC)cc3)CC2)NC(C)=C(C(=O)OC)C1c1ccccc1Cl` (stereo not drawn) [Example 20], the IC50 stood at 33.1 nM.

As to `CCOC(=O)C1=C(COCCN2CCN(C(=O)Nc3ccc(F)cc3)CC2)NC(C)=C(C(=O)OC)C1c1ccccc1Cl` (stereo not drawn) [Example 21], the IC50 worked out at 21.9 nM.

Regarding `CCOC(=O)C1=C(COCCN2CCN(C(=O)NC(C)C)CC2)NC(C)=C(C(=O)OC)C1c1ccccc1Cl` (stereo not drawn) [Example 22], the IC50 amounted to 2.4 nM.

For the molecule `CCOC(=O)C1=C(COCCN2CCN(C(=O)NC3CCCCC3)CC2)NC(C)=C(C(=O)OC)C1c1ccccc1Cl` (stereo not drawn) [Example 23], the IC50 was 8.51 nM.

Consider `CCOC(=O)C1=C(COCCN2CCN(C(=O)Nc3cccnc3)CC2)NC(C)=C(C(=O)OC)C1c1ccccc1Cl` (stereo not drawn) [Example 24], for which the IC50 is 14.5 nM.

Regarding `CCCNC(=O)N1CCN(CCOCC2=C(C(=O)OCC)C(c3ccccc3Cl)C(C(=O)OC)=C(C)N2)CC1` (stereo not drawn) [Example 25], the IC50 stood at 7.76 nM.

Regarding `CCOC(=O)C1=C(COCC(C)N2CCN(C(=O)NC)CC2)NC(C)=C(C(=O)OC)C1c1ccccc1Cl` (stereo not drawn) [Example 26], the IC50 turned out to be 13.5 nM.

For the molecule `CCNC(=O)N1CCN(C(C)COCC2=C(C(=O)OCC)C(c3ccccc3Cl)C(C(=O)OC)=C(C)N2)CC1` (stereo not drawn) [Example 27], the IC50 turned out to be 21 nM.

With `CCOC(=O)C1=C(COCC(C)N2CCN(C(=O)NC(C)C)CC2)NC(C)=C(C(=O)OC)C1c1ccccc1Cl` (stereo not drawn) [Example 28], the IC50 worked out at 9.3 nM.

As to `CCOC(=O)C1=C(COCC(C)(C)N2CCN(C(=O)NC)CC2)NC(C)=C(C(=O)OC)C1c1ccccc1Cl` (stereo not drawn) [Example 29], the IC50 was found to be 15 nM.

`CCOC(=O)C1=C(COCCN2CCN(C(=O)NC)CC2)NC(C)=C(C(=O)OC)C1c1ccccc1C(F)(F)F` (stereo not drawn) [Example 30]: the IC50 was found to be 11 nM.

For `CCOC(=O)C1=C(COCCN2CCN(C(=O)NC)CC2)NC(C)=C(C(=O)OC)C1c1cccc(Cl)c1Cl` (stereo not drawn) [Example 31], the IC50 is 2.5 nM.

On to `CCOC(=O)C1=C(COCCN2CCN(C(=O)NC)CC2)NC(C)=C(C(=O)OC)C1c1cc(Cl)cc(Cl)c1` (stereo not drawn) [Example 32], for which the IC50 came to 50 nM.

Regarding `CCOC(=O)C1=C(COCCN2CCN(C(=O)NC)CC2)NC(C)=C(C(=O)OC)C1c1c(Cl)cccc1Cl` (stereo not drawn) [Example 33], the IC50 came out at 25 nM.

As for `CCOC(=O)C1=C(COCCN2CCN(C(=O)NC)CC2)NC(C)=C(C(=O)OC)C1c1cccc(Cl)c1` (stereo not drawn) [Example 34], the IC50 was 17.8 nM.

On to `CCOC(=O)C1=C(COCCN2CCN(C(=O)NC)CC2)NC(C)=C(C(=O)OC)C1c1ccccc1F` (stereo not drawn) [Example 35], for which the IC50 was determined as 19.5 nM.

As to `CCOC(=O)C1=C(COCCN2CCN(C(=O)NC)CC2)NC(C)=C(C(=O)OC)C1c1nccs1` (stereo not drawn) [Example 36], the IC50 was 1000 nM.

Regarding `CCOC(=O)C1=C(COCCN2CCN(C(N)=O)CC2)NC(C)=C(C(=O)OC)C1c1cccc(Cl)c1Cl` (stereo not drawn) [Example 37], the IC50 came to 7.9 nM.

As to `CCOC(=O)C1=C(COCCN2CCN(CC(=O)Nc3c(C)cccc3C)CC2)NC(C)=C(C(=O)OC)C1c1ccccc1Cl` (stereo not drawn) [Example 38, 4-(2-chlorophenyl)-2-[2-[4-(N-[2,6-dimethylphenyl]carbamoylmethyl)piperazin-1-yl]ethoxymethyl]-3-ethoxycarbonyl-5-methoxycarbonyl-6-methyl-1,4-dihydropyridine], the IC50 stood at 20.4 nM.

In the case of `CCOC(=O)C1=C(COCCN2CCN(CC(=O)OC)CC2)NC(C)=C(C(=O)OC)C1c1ccccc1Cl` (stereo not drawn) [Example 39], the IC50 is 10.5 nM.

With `CCOC(=O)C1=C(COCCN2CCN(CC(N)=O)CC2)NC(C)=C(C(=O)OC)C1c1ccccc1Cl` (stereo not drawn) [Example 40], the IC50 was found to be 10.5 nM.

As to `CCOC(=O)C1=C(COCCN2CCN(C(=O)N(C)C)CC2)NC(C)=C(C(=O)OC)C1c1ccccc1Cl` (stereo not drawn) [Example 41, 4-(2-chlorophenyl)-2-[2-(4-[N,N-dimethylcarbamoyl]-piperazin-1-yl)ethoxymethyl]-3-ethoxycarbonyl-5-methoxycarbonyl-6-methyl-1,4-dihydropyridine, hydrochloride salt], the IC50 stood at 12.9 nM.

Regarding `CCOC(=O)C1=C(COCCN2CCN(S(=O)(=O)N(C)C)CC2)NC(C)=C(C(=O)OC)C1c1ccccc1Cl` (stereo not drawn) [Example 42], the IC50 came out at 49 nM.

As to `CCOC(=O)C1=C(COCCN2CCN(S(C)(=O)=O)CC2)NC(C)=C(C(=O)OC)C1c1ccccc1Cl` (stereo not drawn) [Example 43], the IC50 came out at 15.8 nM.

As to `CCOC(=O)C1=C(COCCN2CCN(C(=O)c3ccco3)CC2)NC(C)=C(C(=O)OC)C1c1ccccc1Cl` (stereo not drawn) [Example 44], the IC50 turned out to be 85.1 nM.

As to `CCOC(=O)C(=O)N1CCN(CCOCC2=C(C(=O)OCC)C(c3ccccc3Cl)C(C(=O)OC)=C(C)N2)CC1` (stereo not drawn) [Example 45], the IC50 came to 10 nM.

Turning to `CCOC(=O)C1=C(COCCN2CCN(C(=O)COC)CC2)NC(C)=C(C(=O)OC)C1c1ccccc1Cl` (stereo not drawn) [Example 46], the IC50 amounted to 6.3 nM.

Take `CCOC(=O)C1=C(COCCN2CCN(C(=O)c3cccnc3)CC2)NC(C)=C(C(=O)OC)C1c1ccccc1Cl` (stereo not drawn) [Example 48]: the IC50 amounted to 13.2 nM.

In the case of `CCOC(=O)C1=C(COCCN2CCN(C(=O)OCC)CC2)NC(C)=C(C(=O)OC)C1c1ccccc1Cl` (stereo not drawn) [Example 49], the IC50 worked out at 10 nM.

`CCOC(=O)C1=C(COCCN2CCN(C(=O)N3CCOCC3)CC2)NC(C)=C(C(=O)OC)C1c1ccccc1Cl` (stereo not drawn) [Example 50]: the IC50 came to 5.9 nM.

With `CCOC(=O)C1=C(COCCN2CCN(C=O)CC2)NC(C)=C(C(=O)OC)C1c1ccccc1Cl` (stereo not drawn) [Example 51, 4-(2-chlorophenyl)-3-ethoxycarbonyl-2-[2-(4-formylpiperazin-1-yl)ethoxymethyl]-5-methoxycarbonyl-6-methyl-1,4-dihydropyridine, bisoxalate salt], the IC50 turned out to be 7.94 nM.

With `CCOC(=O)C1=C(COCCN2CCN(C(=O)CC(C)=O)CC2)NC(C)=C(C(=O)OC)C1c1ccccc1Cl` (stereo not drawn) [Example 52, 2-[2-(4-acetoacetylpiperazin-1-yl)ethoxymethyl]-4-(2-chlorophenyl)-3-ethoxycarbonyl-5-methoxycarbonyl-6-methyl-1,4-dihydropyridine, hydrochloride hydrate], the IC50 stood at 9.8 nM.
